US20140243418A1, “RASAGILINE FOR PARKINSON'S DISEASE MODIFICATION” (Teva Pharmaceutical Industries, Ltd., priority 2008, published 2014)

Assays:
PD patients = settings: cited from earlier work
Early Stage PD patients = settings: 1 mg only; end of the PC phase
From the text: III. Additional Efficacy Endpoints • 1. Number (%) of subjects who need additional anti-PD therapy • 2. Time to need of additional anti-PD therapy • 3. Change from baseline to LOV in placebo-controlled phase in Part I of revised UPDRS (version 4)

Structure (SMILES): C#CCN[C@@H]1CCc2ccccc21 [rasagiline]
- functional decline vs treatment delayed for 6 months (PD patients; 1 and 2 mg/d rasagiline for one year, TEMPO): less functional decline
- efficacy as monotherapy in PD patients (PD patients; first 6-month double-blind, randomized placebo-controlled stage of TEMPO): efficacious as monotherapy
- UPDRS Version 4 Part 1 (Early Stage PD patients): beneficial effect
